Article PMC3582038 (Bioorganic & medicinal chemistry, 2012)
In brackets after ≈: the same amount, converted by molar mass. Marks after values point to notes of the source that are not given here.

Tests used:
[1] = In vivo pharmacokinetics in rats; conditions: for toxicity in both administration modes: IV 10 mg/kg and PO 100 mg/kg; for unbound peak plasma concentration as multiple of the MIC: peak plasma concentration converted to unbound; for half-life: male, Sprague-Dawley, rat, plasma, iv, 10 mg/kg; for fe (fraction of dose excreted unchanged in urine): mean (SD)
E. coli K12 ΔtolC = type: cell-based; conditions: efflux pump deficient
M. tuberculosis = assay: Antituberculosis MIC, microbroth dilution; type: cell-based; conditions: M. tuberculosis MIC relative to compound 11
[2] = test system: Strep. pyogenes ATCC 700294; assay: Antibacterial spectrum MIC, S. pyogenes; type: cell-based; conditions: Streptococcus pyogenes, ATCC700294, read-out: MIC S. pyogenes
[3] = rats, based on a 10 mg/kg IV dose; ref [21],[22] (Linezolid), [23],[24] (Ofloxacin); cited from earlier work

Question: Which “toxicity in both administration modes” value ([1]; rats) does the source give for `O=[N+]([O-])c1ccc(C2=NOC(c3ccc(N4CCCCC4)cc3)C2)o1` (stereo not shown) [Compound 1] here?
Answer: Its value is “non-toxic”.

Question: What about the “unbound peak plasma concentration as multiple of the MIC” value (shortened to “unbound peak plasma concentration”) ([1]; rats, IV 10 mg/kg) of the same compound?
Answer: The value was 4.6 times the MIC.

Question: With `O=[N+]([O-])c1ccc(C2=NOC(c3ccc(N4CCOCC4)cc3)C2)o1` (stereo not shown) [Compound 6, 4-(4-(3-(5-Nitrofuran-2-yl)-4,5-dihydroisoxazol-5-yl)phenyl)morpholine] as the compound, how does the “toxicity in both administration modes” value ([1]; rats) read?
Answer: Its value is “non-toxic”.

Question: And the “unbound peak plasma concentration” value ([1]; rats, IV 10 mg/kg)?
Answer: Its value is 5.0 times the MIC.

Question: With `O=[N+]([O-])c1ccc(C2=NOC(c3ccc(N4CCOCC4)nc3)C2)o1` (stereo not shown) [Compound 7, 4-(5-(3-(5-Nitrofuran-2-yl)-4,5-dihydroisoxazol-5-yl)pyridin-2-yl)morpholine] as the compound, how does the “MIC E. coli ΔtolC” value (E. coli K12 ΔtolC) read?
Answer: The value was 6.25 µg/mL (≈ 18.2 µM).

Question: And the half-life [1]?
Answer: Its half-life is 36.6 to 43.2 min.

Question: And the “toxicity in both administration modes” value ([1]; rats)?
Answer: The value was “non-toxic”.

Question: What about the “unbound peak plasma concentration” value ([1]; rats, IV 10 mg/kg) of the same compound?
Answer: Its value is 9.8 times the MIC.

Question: What about the “fe (fraction of dose excreted unchanged in urine)” value ([1]; rats) of the same compound?
Answer: The value was 0.021 (0.01) %.

Question: Which “MIC E. coli ΔtolC” value (E. coli K12 ΔtolC) does the source give for `O=[N+]([O-])c1ccc(C2=NOC(c3ccc(N4CCOCC4)c(F)c3)C2)o1` (stereo not shown) [Compound 8, 4-(2-Fluoro-4-(3-(5-nitrofuran-2-yl)-4,5-dihydroisoxazol-5-yl)phenyl)morpholine] here?
Answer: The value was 6.25 µg/mL (≈ 17.3 µM).

Question: For `O=[N+]([O-])c1ccc(C2=NOC(c3ccc(N4CC[S+]([O-])CC4)cc3)C2)o1` (stereo not shown) [Compound 12, 4-(4-(3-(5-nitrofuran-2-yl)-4,5-dihydroisoxazol-5-yl)phenyl)thiomorpholine 1-oxide], which “fold weaker MIC value than 11” value (M. tuberculosis) is on record?
Answer: Its value is 8 fold.

Question: With `CN1CCN(c2ccc(C3CC(c4ccc([N+](=O)[O-])o4)=NO3)cc2)C(=O)C1` (stereo not shown) [Compound 15, 4-methyl-1-(4-(3-(5-nitrofuran-2-yl)-4,5-dihydroisoxazol-5-yl)phenyl)piperazin-2-one] as the compound, how does the half-life [1] read?
Answer: Its half-life is 36.6 to 43.2 min.

Question: And the “toxicity observed after IV dosing” value ([1]; rats, IV 10 mg/kg)?
Answer: The value was “seizures and death in one animal”.

Question: And the “unbound peak plasma concentration” value ([1]; rats, IV 10 mg/kg)?
Answer: Its value is 0.71 times the MIC.

Question: What about the “deaths after oral administration” value ([1]; rats, PO 100 mg/kg) of the same compound?
Answer: The value was “No animals died”.

Question: What about the “fe (fraction of dose excreted unchanged in urine)” value ([1]; rats) of the same compound?
Answer: The value was 0.68 (0.44) %.

Question: For `CN1CCN(c2ccc(C3CC(c4ccc([N+](=O)[O-])o4)=NO3)cn2)C(=O)C1` (stereo not shown) [Compound 16, 4-methyl-1-(5-(3-(5-nitrofuran-2-yl)-4,5-dihydroisoxazol-5-yl)pyridin-2-yl)piperazin-2-one], which “MIC E. coli ΔtolC” value (E. coli K12 ΔtolC) is on record?
Answer: Its value is 6.25 µg/mL (≈ 16.8 µM).

Question: With `O=C1COCCN1c1ccc(C2CC(c3ccc([N+](=O)[O-])o3)=NO2)cn1` (stereo not shown) [Compound 19, 4-(5-(3-(5-nitrofuran-2-yl)-4,5-dihydroisoxazol-5-yl)pyridin-2-yl)morpholin-3-one] as the compound, how does the MIC [2] read?
Answer: The MIC was 1000 µg/mL (≈ 2800 µM).

Question: With `CC1COc2c(N3CCN(C)CC3)c(F)cc3c(=O)c(C(=O)O)cn1c23` (stereo not shown) [Ofloxacin] as the compound, how does the “AUCo0-∞” value [3] read?
Answer: Its value is 6.1–11.8 ^* hr mg/L.
